Experimental data published in patent US8629143B2, “Potassium channel modulators” (AbbVie Inc., priority 2009, dated 2014).

Molecular target: T1, KCNQ 2/3 channels (HEK293 cells stably expressing human KCNQ2 and KCNQ3 subunits) (Homo sapiens, UniProt O43525+O43526)
T1 construct: expressed in transfected cells; host or cells: HEK293
Assay: KCNQ2/3 channel activation, thallium flux FLIPR assay with BTC-AM dye
Format: cell-based
Conditions: for Emax: HEK293, maximum response relative to the response produced by 10 μM retigabine (set at 100%), read-out: Max. %; for EC50: HEK293 cells expressing human KCNQ2 and KCNQ3, thallium flux, FLIPR
How it was run: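 HEK293 cells stably expressing human KCNQ2/KCNQ3 were loaded with BTC-AM (3 μg/mL, 2 h, RT) and preincubated with compound for 4 min in pH 7.3 gluconate buffer containing 0.1 mM ouabain. Flux was triggered by 6 mM TlNO3/10 mM K2SO4 and read for 3 min; EC50 came from summed responses over basal, with maximum relative to 10 μM retigabine (100%).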

Cc1ccc(-c2nn(NC(=O)Cc3cc(F)cc(F)c3)c(=O)c3ccccc23)c(C)c1 [Example 162, 2-(3,5-difluorophenyl)-N-[4-(2,4-dimethylphenyl)-1-oxophthalazin-2(1H)-yl]acetamide]
Emax: 164% | EC50: 0.1 to 0.5 µM

Cc1ccc(-c2nn(NC(=O)CC34CC5CC(CC(C5)C3)C4)c(=O)c3ccccc23)cc1C [Example 164, 2-(adamantan-1-yl)-N-[4-(3,4-dimethylphenyl)-1-oxophthalazin-2(1H)-yl]acetamide]
Emax: 155% | EC50: < 0.1 µM

Cc1ccc(-c2nn(NC(=O)Cc3ccc(Cl)cc3)c(=O)c3ccccc23)cc1C [Example 165, 2-(4-chlorophenyl)-N-[4-(3,4-dimethylphenyl)-1-oxophthalazin-2(1H)-yl]acetamide]
Emax: 112% | EC50: 0.1 to 0.5 µM

Cc1ccc(-c2nn(NC(=O)Cc3cc(F)cc(F)c3)c(=O)c3ccccc23)cc1C [Example 166, 2-(3,5-difluorophenyl)-N-[4-(3,4-dimethylphenyl)-1-oxophthalazin-2(1H)-yl]acetamide]
Emax: 161% | EC50: 0.1 to 0.5 µM

CC(C)c1ccc(-c2nn(NC(=O)CC34CC5CC(CC(C5)C3)C4)c(=O)c3ccccc23)cc1 [Example 169, 2-(adamantan-1-yl)-N-[4-(4-isopropylphenyl)-1-oxophthalazin-2(1H)-yl]acetamide]
Emax: 139% | EC50: 0.1 to 0.5 µM

CC(C)c1ccc(-c2nn(NC(=O)Cc3ccc(Cl)cc3)c(=O)c3ccccc23)cc1 [Example 170, 2-(4-chlorophenyl)-N-[4-(4-isopropylphenyl)-1-oxophthalazin-2(1H)-yl]acetamide]
Emax: 104% | EC50: 0.5 to 1 µM

CC(C)c1ccc(-c2nn(NC(=O)Cc3cc(F)cc(F)c3)c(=O)c3ccccc23)cc1 [Example 171, 2-(3,5-difluorophenyl)-N-[4-(4-isopropylphenyl)-1-oxophthalazin-2(1H)-yl]acetamide]
Emax: 134% | EC50: 0.5 to 1 µM

CC(C)c1nn(NC(=O)CC23CC4CC(CC(C4)C2)C3)c(=O)c2cc(C(F)(F)F)ccc12 [Example 173, 2-(adamantan-1-yl)-N-[4-isopropyl-1-oxo-7-(trifluoromethyl)phthalazin-2(1H)-yl]acetamide]
Emax: -12% | EC50: > 10 µM

COc1ccc(-c2nn(NC(=O)CC34CC5CC(CC(C5)C3)C4)c(=O)c3cc(Br)ccc23)cc1 [Example 174, 2-(adamantan-1-yl)-N-[7-bromo-4-(4-methoxyphenyl)-1-oxophthalazin-2(1H)-yl]acetamide]
Emax: 20% | EC50: > 10 µM

COc1ccc(-c2nn(NC(=O)CC34CC5CC(CC(C5)C3)C4)c(=O)c3ccc(Br)cc23)cc1 [Example 175, 2-(adamantan-1-yl)-N-[6-bromo-4-(4-methoxyphenyl)-1-oxophthalazin-2(1H)-yl]acetamide]
Emax: 13% | EC50: > 10 µM

COc1ccc(-c2nn(NC(=O)Cc3cc(F)cc(F)c3)c(=O)c3ccc(Br)cc23)cc1 [Example 176, N-[6-bromo-4-(4-methoxyphenyl)-1-oxophthalazin-2(1H)-yl]-2-(3,5-difluorophenyl)acetamide]
Emax: 33% | EC50: 0.1 to 0.5 µM

COc1ccc(-c2nn(NC(=O)Cc3cc(F)cc(F)c3)c(=O)c3cc(Br)ccc23)cc1 [Example 177, N-[7-bromo-4-(4-methoxyphenyl)-1-oxophthalazin-2(1H)-yl]-2-(3,5-difluorophenyl)acetamide]
Emax: 48% | EC50: > 10 µM

O=C(CC12CC3CC(CC(Br)(C3)C1)C2)Nn1nc(-c2ccccc2)c2ccsc2c1=O [Example 178, 2-(3-bromoadamantan-1-yl)-N-(7-oxo-4-phenylthieno[2,3-d]pyridazin-6(7H)-yl)acetamide]
Emax: 56% | EC50: > 10 µM

O=C(CC12CC3CC(CC(F)(C3)C1)C2)Nn1nc(-c2ccccc2)c2ccsc2c1=O [Example 179, 2-(3-fluoroadamantan-1-yl)-N-(7-oxo-4-phenylthieno[2,3-d]pyridazin-6(7H)-yl)acetamide]
Emax: 169% | EC50: 0.5 to 1 µM

O=C(CC12CC3CC(CC(O)(C3)C1)C2)Nn1nc(-c2ccccc2)c2ccsc2c1=O [Example 180, 2-(3-hydroxyadamantan-1-yl)-N-(7-oxo-4-phenylthieno[2,3-d]pyridazin-6(7H)-yl)acetamide]
Emax: -3% | EC50: > 10 µM

O=C(Cc1cc(F)cc(F)c1)Nn1nc(-c2ccc(Cl)cc2)c2c(F)ccc(F)c2c1=O [Example 181, N-[4-(4-chlorophenyl)-5,8-difluoro-1-oxophthalazin-2(1H)-yl]-2-(3,5-difluorophenyl)acetamide]
Emax: 166% | EC50: 0.1 to 0.5 µM

O=C(Cc1ccc(Cl)cc1)Nn1nc(-c2ccc(Cl)cc2)c2c(F)ccc(F)c2c1=O [Example 182, 2-(4-chlorophenyl)-N-[4-(4-chlorophenyl)-5,8-difluoro-1-oxophthalazin-2(1H)-yl]acetamide]
Emax: 122% | EC50: 0.1 to 0.5 µM

O=C(CC12CC3CC(CC(C3)C1)C2)Nn1nc(-c2ccc(Cl)cc2)c2c(F)ccc(F)c2c1=O [Example 183, 2-(adamantan-1-yl)-N-[4-(4-chlorophenyl)-5,8-difluoro-1-oxophthalazin-2(1H)-yl]acetamide]
Emax: 178% | EC50: 0.1 to 0.5 µM

O=C(CC12CC3CC(CC(C3)C1)C2)Nn1nc(-c2ccccc2)c2c(c1=O)CCCC2 [Example 185, 2-(adamantan-1-yl)-N-(1-oxo-4-phenyl-5,6,7,8-tetrahydrophthalazin-2(1H)-yl)acetamide]
Emax: 144% | EC50: < 0.1 µM

O=C(Cc1cc(F)cc(F)c1)Nn1nc(-c2ccccc2)c2c(c1=O)CCCC2 [Example 186, 2-(3,5-difluorophenyl)-N-(1-oxo-4-phenyl-5,6,7,8-tetrahydrophthalazin-2(1H)-yl)acetamide]
Emax: 136% | EC50: 0.1 to 0.5 µM

O=C(Cc1ccc(Cl)cc1)Nn1nc(-c2ccccc2)c2c(c1=O)CCCC2 [Example 187, 2-(4-chlorophenyl)-N-(1-oxo-4-phenyl-5,6,7,8-tetrahydrophthalazin-2(1H)-yl)acetamide]
Emax: 123% | EC50: 0.1 to 0.5 µM

O=C(Cc1cc(F)cc(F)c1)Nn1nc(-c2ccccc2)c2c(c1=O)CCC2 [Example 188, 2-(3,5-difluorophenyl)-N-(1-oxo-4-phenyl-1,5,6,7-tetrahydro-2H-cyclopenta[d]pyridazin-2-yl)acetamide]
Emax: 131% | EC50: 1 to 10 µM

O=C(CC12CC3CC(CC(C3)C1)C2)Nn1nc(-c2ccccc2)c2c(c1=O)CCC2 [Example 189, 2-(adamantan-1-yl)-N-(1-oxo-4-phenyl-1,5,6,7-tetrahydro-2H-cyclopenta[d]pyridazin-2-yl)acetamide]
Emax: 152% | EC50: 0.1 to 0.5 µM

O=C(Cc1ccc(Cl)cc1)Nn1nc(-c2ccccc2)c2c(c1=O)CCC2 [Example 190, 2-(4-chlorophenyl)-N-(1-oxo-4-phenyl-1,5,6,7-tetrahydro-2H-cyclopenta[d]pyridazin-2-yl)acetamide]
Emax: 124% | EC50: 1 to 10 µM

CSCC(=O)Nn1nc(C(F)(F)F)c2ccccc2c1=O [Example 191, 2-(methylthio)-N-[1-oxo-4-(trifluoromethyl)phthalazin-2(1H)-yl]acetamide]
Emax: 25% | EC50: > 10 µM

O=C(CSC12CC3CC(CC(C3)C1)C2)Nn1nc(C(F)(F)F)c2ccccc2c1=O [Example 192, 2-(adamantan-1-ylthio)-N-[1-oxo-4-(trifluoromethyl)phthalazin-2(1H)-yl]acetamide]
Emax: 155% | EC50: 0.1 to 0.5 µM

O=C(CSC12CC3CC(CC(C3)C1)C2)Nn1nc(-c2ccccc2)c2ccccc2c1=O [Example 193, 2-(adamantan-1-ylthio)-N-(1-oxo-4-phenylphthalazin-2(1H)-yl)acetamide]
Emax: 161% | EC50: 0.1 to 0.5 µM

O=C(Cc1ccc2c(c1)OCO2)Nn1nc(-c2ccc(Cl)cc2)c2ccccc2c1=O [Example 194, 2-(1,3-benzodioxol-5-yl)-N-[4-(4-chlorophenyl)-1-oxophthalazin-2(1H)-yl]acetamide]
Emax: 248% | EC50: 0.5 to 1 µM
